Measurements as given in a melting point compilation (Tetko et al.; mined from patent text by program, amines drawn as free bases though some values may be those of a salt).

SMILES | melting point
COc1cccc2c(=O)nc(-c3ccccn3)sc12 | 191 °C
CCOC(=O)C1=CNC2=C(C(=O)Nc3ccccc3)CCN2C1=O | 240 to 241 °C
Nc1nc2ccccc2c2c1ncn2CCCCCC(=O)N1CCOCC1 | 166 to 168 °C
O=C1CC(c2cccc(OCc3ccccc3)c2)=Nc2ccc(N3CCCC3)cc21 | 320 to 322 °C
O=C(c1ccc(-c2cnc3c(c2)N(Cc2cc(F)ccc2F)CCN3)cc1)N1CCC[C@H]1CN1CCCC1 | 143 to 144 °C
CCCCn1c(C)nc(SC)nc1=O | 62 to 63 °C
Cc1ccc(S(=O)(=O)N(CCc2cccs2)CC(=O)N[C@@H](Cc2ccccc2)C(=O)O)cc1 | > 200 °C
CCOC(=O)N(CC(=O)O)n1nnc2ccccc21 | 189 to 192 °C
Cc1cccc(-c2[nH]c(C(C)C)nc2-c2cccc(-c3cccc(S(C)(=O)=O)c3)c2)n1 | 97 to 100 °C
O=C1CCC(=O)N1CCc1ccc(OC(F)(F)F)cc1 | 91 to 93 °C
CCOc1nn(Cc2ccnc(OCc3nc(-c4ccco4)oc3C)c2)cc1CCC(=O)O | 138 to 139 °C
CCCCCCCCCCCCCCCc1cc2cc(C(=O)O)ccc2[nH]1 | 108 to 110 °C
CC(C)Oc1ccc(-c2nn([C@@H](C)c3oc4ccc(F)cc4c(=O)c3-c3cccc(F)c3)c3ncnc(N)c23)cc1F | 139 to 142 °C
COC(=O)CCCNC(=O)C[C@H]1O[C@H](c2cccc(OC)c2OC)c2cc(Cl)ccc2N(CC(C)(C)CO)C1=O | 78 to 80 °C
N#CC1(c2cccc(OCc3ccc4ccc(F)cc4c3)c2)CCOCC1 | 106 to 107 °C
CC(=O)OC(c1ccccc1F)c1scnc1C (centres undefined) | 53 to 56 °C
FC(F)(F)c1ccc(-c2ccnc(Oc3ccc4cccnc4c3)c2)cc1 | 156 to 158 °C
COc1ccccc1NC(=O)CCCC(C)=O | 101 to 102 °C
O=c1[nH]c2ccccc2c(-c2ccccc2)c1-c1csc(-c2ccncc2)n1 | > 250 °C
O=C(O)C(Cc1ccccc1)Oc1ccc(-c2ccc(-c3c(Br)oc4ccccc34)cc2)cc1 (centres undefined) | 148 to 149 °C
CN(C)CCCc1nc2ccccc2[nH]1 | 117 to 119 °C
CC(=O)Nc1cc(F)ccc1C(=O)NCCN1CCC(n2c(=O)[nH]c3cc(Cl)ccc32)CC1 | 196 °C
CC1=C(C)C(=O)C(C(CCCCCCC(=O)O)c2cccnc2)=C(C)C1=O (centres undefined) | 113 to 114 °C
CCC(CC)(CC(=O)Nc1cccc(OCc2ccc3cc(F)ccc3n2)c1)C(=O)O | 88 to 90 °C
COCCOc1cc(OC)c2c(=O)[nH]c(-c3ccc(N4C[C@@H](C)N(C(C)=O)[C@@H](C)C4)cc3)nc2c1 | 225 to 227 °C

SMILES | melting point
CC1=C(N2CC2)C(=O)c2c([nH]c(C)c2C)C1=O | 251 to 253 °C
CCCCCCCCNC(=O)c1c(N)cc(Cl)cc1Cl | 105 to 109 °C
O=C1Nc2cccnc2N(C(=O)NCCN2CCCC(CN3CCCCCC3)C2)c2ccccc21 (centres undefined) | 135 to 137 °C
O=C(COc1ccccc1)Nc1ccccc1C(=O)O | 201 to 203 °C
CCOC(=O)c1c2ccc(Cl)cc2c(-c2ccccc2)n1CCOS(C)(=O)=O | 125 to 127 °C
Cc1cc(OCCCCCCCCNC(=O)c2cc(-c3cccc(Cl)c3)c(OCC(=O)O)c(-c3cccc(Cl)c3)c2)ccc1F | 138 to 140 °C
Nc1ccc(NC(=O)[C@H](Cc2ccccc2)NC(=O)c2ccc(-c3nnn[nH]3)cc2)cc1 | 137 °C
COc1ccc(Oc2c(N)cc(C(=O)O)cc2SCc2ccccc2)cc1 | 158 to 161 °C
O=C(CC1c2cc(Cl)ccc2S(=O)(=O)N1c1ccccc1)NO (centres undefined) | 192 to 194 °C
CC(C)(C(=O)O)c1ccc2oc(-c3ccccc3)nc2c1 | 92 to 95 °C
COc1ccc(C[C@@H](CO)NC(=O)c2ccnc(-n3nc(-c4cccnc4)c4ccccc4c3=O)c2)cc1OC | 135 to 137 °C
COc1ccc2c(c1)N(CC(=O)O)C(=O)C(N=[N+]=[N-])CC2 (centres undefined) | 145 to 147 °C
COc1cc(C(=O)COC(C)=O)ccc1O | 115 to 117 °C
COc1ccc(-c2oc3ccc(F)cc3c(=O)c2OCCOc2cccc(C(C)=C3SC(=O)NC3=O)c2)cc1OC | 228 to 230 °C
Cc1cc2oc(=O)c3c(c2cc1C)CCNC3 | 173 to 175 °C
COc1c(N2C[C@@H](N)[C@@H](C3CC3)C2)c(F)cc2c(=O)c(C(=O)O)cn([C@@H]3C[C@@H]3F)c12 | 211 to 214 °C
CCN(CC)C(=O)C=Cc1ccc(C)c(C)c1 | 36.6 °C
CC(=O)CC(=O)N=C1SCCN1C | 43 to 45 °C
Cc1c(C)c2c(c(C)c1O)CCC(C)(O)O2 (centres undefined) | 105 to 107 °C
COc1cc(-c2cc3ccccc3[nH]2)cc(OC)c1OS(=O)(=O)c1ccccc1 | 150 °C
CC(=O)Nc1ncc(-c2ccc(=O)n(C(C)C)n2)c(-c2ccccc2)n1 | 209 to 210 °C
COC(=O)Cc1cn(Cc2ccccc2)nc1OCCCc1cc(O)nn1Cc1ccc(Cl)cc1Cl | 106 to 107 °C
O=C(O)/C=C/n1cnc2ccc(O)cc2c1=O | 294 to 296 °C
NC(=S)c1ccc(I)cc1 | 163 to 165 °C
